Here are results for two compounds from patent US20240293548A1, “CONTACT LENS FOR PHOTODYNAMIC INACTIVATION OF GERMS, PRODUCT AND METHOD OF TREATING FUNGAL KERATITIS BY APPLYING THE SAME” (NATIONAL CHENG KUNG UNIVERSITY, priority 2023, published 2024).

Experiment [1] deals with C. albicans. Description: Antimicrobial efficacy of the photoactive solution after adding a low concentration of hydrogen peroxide. Type of experiment: cell-based, Candida albicans. The settings on record: for C. albicans amount compared to the NC group: no light exposure. How it is done: The negative control (referred to as NC) group was the fungal solution of C. albicans not being treated with RB, hydrogen peroxide, and light exposure. The light control (referred to as LC) group was the fungal solution of C. albicans exposed to light but contained neither RB nor hydrogen peroxide. […] The hydrogen peroxide (referred to as H2O2) group was the fungal solution of C. albicans treated with 0.03 wt % hydrogen peroxide without RB for 15 minutes but not subjected to the light exposure treatment. The photodynamic therapy (referred to as PDT) group was the fungal solution of C. albicans treated with 0.1 wt % RB without hydrogen peroxide for 15 minutes and subjected to 35 J/cm^2 green light exposure treatment. The photodynamic therapy with 0.03 wt hydrogen peroxide (referred to as H2O2+PDT) group was the fungal solution of C. albicans treated with 0.1 wt % RB and 0.03 wt % hydrogen peroxide for 15 minutes and subjected to the 35 J/cm^2 green light exposure treatment. FIG. 6 was a bar chart illustrating the amount of C. albicans after different treatments in the fungal solution according to some embodiments of the present invention. The x-axis represented the NC group, the LC group, the DC group, the H2O2 group, the PDT group, and the H2O2+PDT group from left to right. The y-axis represented the C. albicans amount (unit: log CFU/mL).

In experiment [2] the test system is Candida albicans (drug-resistant strain, BCRC 21538 / ATCC 10231). In words: Antimicrobial efficacy of rose bengal-PDT (colony counting after green light exposure). Type of experiment: cell-based. The settings on record: 0.2 wt % RB; for log reduction value of the amounts of C. albicans: compared to without light exposure; for antimicrobial rate: equivalent of log reduction. As to the method: A drug-resistant strain of Candida albicans was bought from the Bioresource Collection and Research Center (BCRC), Food Industry Research and Development Institute (FIRDI), 331, Shipin Rd., East Dist., Hsinchu City, Taiwan (postcode: 300193) under the accession number of BCRC 21538. The same strain could also be bought from American Type Culture Collection (ATCC), VA, USA under an accession number of ATCC 10231.
The Candida albicans was grown and prepared in a fungal solution with an amount of 1×10^7 CFU/mL and mixed with an equal volume of rose bengal (RB) solution (i.e., the mixed volume ratio was 1:1) to obtain a mixed solution containing 0.2 wt % RB (0.2 wt % RB group).
A portion of the mixed solution containing 0.2 wt % RB and fungi was exposed to green light of 10 J/cm^2 or 20 J/cm^2 at 25±1° C., and another portion of the mixed solution was not treated with light exposure. The light source of the aforementioned green light was a commercial green light LED with an emission peak at the wavelength of 520 nm. […] Noted that three drops represented three repeats. […] In the control group, the fungal solution was mixed with an equal volume of PBS.

With `OO` [hydrogen peroxide], in experiment [1] (H2O2 group: 0.03 wt % hydrogen peroxide without RB for 15 minutes), the “C. albicans amount compared to the NC group” value is reported as “no significant difference”.
For the compound `O=C1OC2(c3cc(I)c(O)c(I)c3Oc3c2cc(I)c(O)c3I)c2c(Cl)c(Cl)c(Cl)c(Cl)c21` [RB, rose bengal], the “log reduction value of the amounts of C. albicans” value amounted to 1 in experiment [2] (10 J/cm^2 green light (520 nm)) and 6 in experiment [2] (20 J/cm^2 green light (520 nm)). The antimicrobial rate is recorded as 90% in experiment [2] (10 J/cm^2 green light) and 99.9999% in experiment [2] (20 J/cm^2 green light). The “C. albicans amount compared to the NC group” value in experiment [1] (DC group: 0.1 wt % RB for 15 minutes) is on record as “no significant difference”. The “log reduction value of the C. albicans amount” value in experiment [1] (PDT group: 0.1 wt % RB without hydrogen peroxide, 15 minutes, 35 J/cm^2 green light, compared to NC group) came to 2.5.
